Laboratory results published in ChEMBL document CHEMBL1130253 (J Med Chem, 1997).

Columns and labels:
CCRF-CEM = test: Concentration required to inhibit against HIV strain IIIB in CEM cell; assay type: functional; conditions: Homo sapiens, read-out: ED50 (the source's name)
[1] = Minimum cellular toxicity against the HIV strain IIIB in CEM cells was determined; assay type: cell-based, CCRF-CEM; conditions: human, read-out: TD50 (the source's name)

Row | EC50 (CCRF-CEM) [nM] | Structure (SMILES) | CC50 [1] [nM]
1 | 970 | Cc1c(O)cccc1C(=O)N[C@@H](CSc1ccc2ccccc2c1)[C@H](O)Cc1ccccc1C(=O)NC(C)(C)C | –
2 | 33 | Cc1c(O)cccc1C(=O)N[C@@H](Cc1ccccc1)[C@H](O)CN1C[C@H]2CCCC[C@H]2C[C@H]1C(=O)NC(C)(C)C | > 5000
